Assay results: patent US20260042764A1, “COMPOSITIONS AND METHODS FOR INHIBITION OF KRAS” (TheRas, Inc., priority 2022, published 2026)

Assays:
[1] = system: SW620 cells (KRAS G12V); assay: Cell-based pERK HTRF assay in SW620 cell (Biological Example 4); conditions: Homo sapiens, SW-620, SW620 (KRAS G12V) cells, pERK HTRF
Summary of the method: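 Read-out: HTRF pERK signal (excitation 320 nm, emission 615 nm) from lysates of SW620 cells after 4 h compound exposure. Dose range was 9 points, half-log steps from 1 μM, in 0.25% DMSO; antibody incubation ran 4–24 h at room temperature.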

[2] = target: T1, Avi-KRAS G12D (1-169) GppNHp/RAF1 RBD-3xFLAG (52-151) (Homo sapiens, UniProt P01116, G12D); assay: Raf1-KRAS G12D-GppNHP disruption HTRF assay (Biological Example 1); type: binding
T1 construct: Avi-KRAS G12D (1-169)
Summary of the method: (§1)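 HTRF PPI disruption; buffer 50 mM Tris pH 7.5, 100 mM NaCl, 5 mM MgCl2, 0.1% BSA, 0.01% Tween, 10% DMSO. Protein mix 1 h RT shaking, reagent mix 1 h RT shaking. Data as % activity vs DMSO (100%).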

[3] = target: T2, Avi-KRAS G12R (1-169) GppNHp/RAF1 RBD-3xFLAG (52-151) (Homo sapiens, UniProt P01116, G12R); assay: Raf1-KRAS G12R-GppNHP disruption HTRF assay (Biological Example 1); type: binding
T2 construct: Avi-KRAS G12R (1-169)
Summary of the method: as §1

[4] = target: T3, Avi-KRAS WT (1-169) GppNHp/RAF1 RBD-3xFLAG (52-151) (Homo sapiens, UniProt P01116); assay: Raf1-KRAS WT-GppNHP disruption HTRF assay (Biological Example 1); type: binding
T3 construct: Avi-KRAS WT (1-169)
Summary of the method: as §1

[5] = target: T4, Avi-KRAS G12V (1-169) GppNHp/RAF1 RBD-3xFLAG (52-151) (Homo sapiens, UniProt P01116, G12V); assay: Raf1-KRAS G12V-GppNHP disruption HTRF assay (Biological Example 1); type: binding
T4 construct: Avi-KRAS G12V (1-169)
Summary of the method: as §1

[6] = system: GP2d cells (KRAS G12D); assay: Cell-based pERK HTRF assay in GP2d cell (Biological Example 2); conditions: GP2d, GP2d (KRAS G12D) cells, pERK HTRF
Summary of the method: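 Phospho-ERK in lysed cells was detected by HTRF using Eu cryptate and d2 antibodies, read between 4 and 24 h at room temperature. Prior to lysis, KRAS G12D GP2d cells, seeded the day before in DMEM with 10% FBS, were exposed to compounds for 60 min. Compounds were tested as 9-point half-log curves from 1 μM or 100 nM top, with 0.25% DMSO.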

[7] = KRAS G12D, GppNHp-loaded, class symbols
[8] = KRAS G12R, GppNHp-loaded, class symbols
[9] = KRAS WT, GppNHp-loaded, class symbols
[10] = KRAS G12V, GppNHp-loaded, class symbols
[11] = KRAS G12D, GppNHp-loaded, Table 11
[12] = KRAS G12R, GppNHp-loaded, Table 11
[13] = KRAS WT, GppNHp-loaded, Table 11
[14] = KRAS G12V, GppNHp-loaded, Table 11

T4 sequence (P01116 1-169 isoform P01116-2 G12V): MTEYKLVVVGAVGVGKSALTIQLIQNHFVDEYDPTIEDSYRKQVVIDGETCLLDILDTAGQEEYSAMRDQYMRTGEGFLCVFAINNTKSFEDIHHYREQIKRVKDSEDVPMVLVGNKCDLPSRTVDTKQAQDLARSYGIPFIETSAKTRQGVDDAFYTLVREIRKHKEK
T3 sequence (P01116 1-169 isoform P01116-2): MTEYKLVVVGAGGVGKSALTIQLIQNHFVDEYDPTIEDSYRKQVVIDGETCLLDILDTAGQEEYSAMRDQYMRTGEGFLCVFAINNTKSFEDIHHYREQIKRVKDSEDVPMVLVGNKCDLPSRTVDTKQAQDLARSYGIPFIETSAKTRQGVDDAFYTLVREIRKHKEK
T2 sequence (P01116 1-169 isoform P01116-2 G12R): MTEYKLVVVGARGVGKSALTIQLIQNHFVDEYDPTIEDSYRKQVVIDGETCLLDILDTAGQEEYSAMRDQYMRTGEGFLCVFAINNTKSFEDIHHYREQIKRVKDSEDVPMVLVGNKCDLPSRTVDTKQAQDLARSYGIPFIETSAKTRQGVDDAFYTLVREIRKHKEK
T1 sequence (P01116 1-169 isoform P01116-2 G12D): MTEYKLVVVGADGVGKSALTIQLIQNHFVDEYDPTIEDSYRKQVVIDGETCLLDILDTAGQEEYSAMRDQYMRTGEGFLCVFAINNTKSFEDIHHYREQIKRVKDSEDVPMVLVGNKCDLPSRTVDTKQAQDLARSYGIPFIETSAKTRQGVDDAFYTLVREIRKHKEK

Row | IC50 ([1]; class symbols) [nM] | IC50 [2, 7] [nM] | IC50 [3, 8] [nM] | IC50 [4, 9] [nM] | IC50 [5, 10] [nM] | IC50 ([6]; class symbols) [nM] | IC50 [1] [nM] | IC50 ([2]; KRAS G12D-GppNHp/RAF1 RBD HTRF) [nM] | IC50 ([3]; KRAS G12R-GppNHp/RAF1 RBD HTRF) [nM] | IC50 ([4]; KRAS WT-GppNHp/RAF1 RBD HTRF) [nM] | IC50 ([5]; KRAS G12V-GppNHp/RAF1 RBD HTRF) [nM] | IC50 [6] [nM] | IC50 [2, 11] [nM] | IC50 [3, 12] [nM] | IC50 [4, 13] [nM] | IC50 [5, 14] [nM] | SMILES
1 | 100 to 1000 | 100 to 1000 | 100 to 1000 | 100 to 1000 | 100 to 1000 | < 100 | – | – | – | – | – | – | – | – | – | – | C=C(C)C(=O)N1CC[C@@H](N(C)c2nc(OC[C@@]34CCCN3C[C@H](F)C4)nc3c(F)c(-c4ccc(F)c5sc(N)c(C#N)c45)c(C(F)(F)F)cc23)[C@H]1C [Compound 671]
2 | < 100 | < 100 | < 100 | < 100 | < 100 | < 100 | – | – | – | – | – | – | – | – | – | – | CCN(c1nc(OC[C@@]23CCCN2C[C@H](F)C3)nc2c(F)c(-c3ccc(F)c4sc(N)c(C#N)c34)c(C(F)(F)F)cc12)[C@H]1CCN(C(=O)[C@@H]2C[C@@H]2F)C1 (atropisomer, axis not shown) [Compound 691]
3 | – | – | – | – | – | – | < 100 | 100 to 1000 | 100 to 1000 | 100 to 1000 | 100 to 1000 | < 100 | – | – | – | – | C[C@@H]1[C@H](N(C)c2nc(OC[C@@]34CCCN3C[C@H](F)C4)nc3c(F)c(-c4ccc(F)c5sc(N)c(C#N)c45)c(C(F)(F)F)cc23)CCN1C(=O)C1(C)CC1 [Compound 313]
4 | – | – | – | – | – | – | < 100 | 100 to 1000 | 1000 to 10000 | 1000 to 10000 | 1000 to 10000 | < 100 | – | – | – | – | C[C@]1(CO)CCN1c1nc(OC[C@@]23CCCN2C[C@H](F)C3)nc2c(F)c(-c3ccc(F)c4sc(N)c(C#N)c34)c(C(F)(F)F)cc12 [Compound 429]
5 | < 100 | < 100 | < 100 | < 100 | < 100 | < 100 | – | – | – | – | – | – | – | – | – | – | CCN(c1nc(OC[C@@]23CCCN2C[C@H](F)C3)nc2c(F)c(-c3ccc(F)c4sc(N)c(C#N)c34)c(C(F)(F)F)cc12)[C@H]1CCN(C(=O)OC2CN(C(C)=O)C2)C1 (atropisomer, axis not shown) [Compound 721]
6 | 100 to 1000 | 1000 to 10000 | 1000 to 10000 | 1000 to 10000 | 1000 to 10000 | < 100 | – | – | – | – | – | – | – | – | – | – | CCC(=O)N1CC[C@H]2[C@@H]1CN2c1nc(OC[C@@]23CCCN2C[C@H](F)C3)nc2c(F)c(-c3ccc(F)c4sc(N)c(C#N)c34)c(C(F)(F)F)cc12 (atropisomer, axis not shown) [Compound 642]
7 | – | – | – | – | – | – | 100 to 1000 | – | – | – | – | < 100 | 100 to 1000 | 100 to 1000 | 100 to 1000 | 1000 to 10000 | CC(C)(O)[C@H]1CCN1c1nc(OC[C@@]23CCCN2C[C@H](F)C3)nc2c(F)c(-c3ccc(F)c4sc(N)c(C#N)c34)c(C(F)(F)F)cc12 [Compound 269]
8 | – | – | – | – | – | – | 100 to 1000 | – | – | – | – | < 100 | 100 to 1000 | 100 to 1000 | 100 to 1000 | 100 to 1000 | N#Cc1c(N)sc2c(F)ccc(-c3c(C(F)(F)F)cc4c(N5CC(O)C5)nc(OC[C@@]56CCCN5C[C@H](F)C6)nc4c3F)c12 [Compound 215]
9 | – | – | – | – | – | – | < 100 | < 100 | < 100 | < 100 | < 100 | < 100 | – | – | – | – | CCN(c1nc(OC[C@@]23CCCN2C[C@H](F)C3)nc2c(F)c(-c3ccc(F)c4sc(N)c(C#N)c34)c(C(F)(F)F)cc12)[C@H]1CCN(C(=O)CC#N)C1 (atropisomer, axis not shown) [Compound 546]
10 | < 100 | < 100 | 100 to 1000 | 100 to 1000 | 100 to 1000 | < 100 | – | – | – | – | – | – | – | – | – | – | CCN1CC[C@H](N(CC)c2nc(OC[C@@]34CCCN3C[C@H](F)C4)nc3c(F)c(-c4ccc(F)c5sc(N)c(C#N)c45)c(C(F)(F)F)cc23)C1=O (atropisomer, axis not shown) [Compound 694]
11 | – | – | – | – | – | – | 100 to 1000 | 100 to 1000 | 1000 to 10000 | 1000 to 10000 | 1000 to 10000 | < 100 | – | – | – | – | CCN(c1nc(OC[C@@]23CCCN2C[C@H](F)C3)nc2c(F)c(-c3ccc(F)c4sc(N)c(C#N)c34)c(C(F)(F)F)cc12)[C@H]1CC(=O)N(C2CC2)C1 [Compound 496]
